Measured values: ChEMBL document CHEMBL4334502, “Basimarols A, B, and C, Highly Oxygenated Pimarane Diterpenoids from Basilicum polystachyon” (J Nat Prod, 2019)
Activity calls are given as the source filed them. No cut-off for these calls is given here.

Legend:
MCF7 = test: Cytotoxicity against human MCF7 cells assessed as reduction in cell viability incubated for 6 days by SRB assay; type: functional, cell-based; conditions: MCF7, 144 h
SK-MEL-28 = test: Cytotoxicity against human SK-MEL-28 cells assessed as reduction in cell viability incubated for 6 days by SRB assay; type: functional, cell-based; conditions: SK-MEL-28, 144 h
NFF = test: Cytotoxicity against human NFF cells assessed as reduction in cell viability incubated for 6 days by SRB assay; type: cell-based; conditions: 144 h
Dengue virus = test: Antiviral activity against DENV infected in African green monkey Vero cells assessed as reduction in plague formation incubated for 72 hrs by immunofluorescence assay; type: functional, organism-based
Kunjin virus = test: Antiviral activity against West Nile virus Kunjin infected in African green monkey Vero cells assessed as reduction in plague formation incubated for 72 hrs by immunofluorescence assay; type: functional
Influenza A virus = test: Antiviral activity against influenza virus H1N1 infected in MDCK cells assessed as reduction in plague formation incubated for 72 hrs by immunofluorescence assay; type: functional, organism-based
Influenza A virus H3N2 = test: Antiviral activity against influenza virus H3N2 infected in MDCK cells assessed as reduction in plague formation incubated for 72 hrs by immunofluorescence assay; type: functional, organism-based

Row | SMILES | IC50 (MCF7) [µM] | IC50 (SK-MEL-28) [µM] | IC50 (NFF) [µM] | Activity (Dengue virus) | IC50 (Dengue virus) [µM] | IC50 (Kunjin virus) [µM] | IC50 (Influenza A virus) [µM] | IC50 (Influenza A virus H3N2) [µM] | Activity (Influenza A virus) | Activity (Influenza A virus H3N2)
1 | C=C[C@]1(C)C[C@]2(O)[C@H](OC(C)=O)C(=O)[C@H]3C(C)(C)CC[C@H](O)[C@]3(COC(C)=O)[C@H]2C[C@@H]1OC(C)=O | 179 | > 200 | > 200 | Active | – | – | – | – | – | –
2 | C=C[C@]1(C)C[C@@]2(O)[C@H](CC1=O)C13CO[C@@](O)([C@H]1[C@@](C)(COC(=O)c1ccccc1)CC[C@H]3O)[C@H]2OC(C)=O | 57 | 70 | 53 | Active | – | – | – | – | – | –
3 | C=C/C(C)=C/C[C@H]1C(C)=CC[C@@H]2[C@]1(C)CCC[C@@]2(C)C(=O)O | – | – | – | – | 1.4 | 1.2 | 4.1 | 18 | – | –
4 | C=C1CC[C@@H]2[C@](C)(CO)[C@H](O)CC[C@@]2(C)[C@@H]1C/C=C1/C(=O)OC[C@H]1O [ANDROGRAPHOLIDE] | – | – | – | Active | – | 100 | – | – | inactive | inactive
5 | C=C[C@]1(C)C[C@@]23O[C@@H](OC(C)=O)C4([C@H]2C[C@@H]1O)[C@@H](O)CCC(C)(C)[C@@H]4C(=O)[C@H]3OC(C)=O | 86 | 158 | 95 | Active | – | – | – | – | – | –
